Ends that are not written are not given here. * marks the point of attachment. FITC = O=C1OC2(c3ccc(O)cc3Oc3cc(O)ccc32)c2ccc(NC(=S)*)cc21; Ahx = NCCCCCC(=O)O
Tests used:
Assay type in all cases: cell-based, human
HaCaT cells [1] = assay: Dependence of cell penetration on ATP (flow cytometry); conditions: pre-treated with 2-DG and NaN3
Experimental: (§1) HaCaT cells were inoculated at a concentration of 3×10^5 cells/well into a 6-well plate and incubated for 24 hours. Then, the cell culture medium was removed, followed by washing twice with HBSS, and replaced with an Opti-MEM medium. The cells were treated with 10 μM FITC-TAT, FITC-Spep001, FITC-Spep002 or FITC-Spep003 and incubated at 37° C. with 5% CO2 for 1 hour. […] Finally, the cells were treated with 1 mg/mL trypsin and thus separated into single cells, followed by centrifugation at 1,000 rpm for 5 minutes. The FITC fluorescence intensities of cell-penetrating peptides per living 10,000 cells were measured by performing flow cytometry (Navios Flow Cytometer by Beckman Coulter Life Sciences), and the result thereof is shown in FIG. 5A(i) to FIG. 5A(v) and FIG. 5B.
A test was conducted in the same conditions as those in Example 7 except that the cells were pre-treated with 2-DG (2-deoxyglucose, D6134, sigma) and NaN3 (sodium azide, 71289, sigma) one hour before treatment with FITC-TAT, FITC-Spep001, FITC-Spep002 or FITC-Spep003 to check the dependence of endocytosis on ATP. Then, the FITC fluorescence intensities of peptides penetrating into living cells were measured by flow cytometry as in Example 5, and the result thereof is shown in FIG. 7.

HaCaT cells [2] = assay: Cell penetration by confocal laser microscope; conditions: 10 μM, 24 hours, compared to positive control FITC-TAT
Experimental: HaCaT cells were inoculated at a concentration of 1.5×10^4 cells/well into an optical 96-well plate (M0562, Greiner) and incubated for 24 hours. Then, the medium was removed, followed by washing once with HBSS, and replaced with a serum-free medium. The cells were treated with 10 μM FITC-Spep001, FITC-Spep002 or FITC-Spep003 and then further incubated for 24 hours. Thereafter, the cells were washed four times with HBSS and treated with 10 μg/mL H33342 (bisBenzimide H33342 trihydrochloride (B2261, Sigma)) and then further incubated at room temperature for 5 minutes. Finally, the cells were washed three times with HBSS. The cell penetration rate was checked using a super resolution confocal laser microscope (LSM800), and the result thereof is shown in FIG. 4A(i) to FIG. 4F(iv). Herein, the cells were treated only FITC (F1906, Invitrogen™) as a negative control, and FITC-TAT was used as a positive control.

HaCaT cells [3] = assay: Cell penetration rate by flow cytometry; conditions: 10 μM, 37° C., 1 hour
Experimental: as §1

With “FITC-Ahx-RLRLRQRRRR ({FITC-Ahx}-RLRLRQRRRR) [FITC-Spep001, Spep001 labelled with FITC at the N-terminal amine group]” the “FITC fluorescence intensity under ATP deficiency” value (HaCaT cells [1]) was “decreased”, the “amount penetrating into cells (fluorescent microscopic image)” value (HaCaT cells [2]) was “penetrates into cells in a greater amount than the positive control FITC-TAT” and the “cell penetration rate (FITC-positive cell count)” value (HaCaT cells [3]) was 36.3%. For the same substance, the “cell penetration rate based on TAT-FITC with a cell penetration rate of 100%” value (HaCaT cells [3]) was 133.95%.

Source: patent US11951204B2, “Cell-penetrating peptides and composition including the same” (S-SKIN. CO., LTD., priority 2022, dated 2024)
